Results as given in patent publication US10358436B2, “Kinase inhibitors and method of treating cancer” (University Health Network, priority 2010, dated 2019).
Where a name gives a salt, the structure may show the parent alone.

Biological target: Aurora A (Homo sapiens (Human), UniProt O14965)
Assay: Aurora A inhibition assay (Z-Lyte)
Type: biochemical

Aurora A, sequence (O14965 whole entry): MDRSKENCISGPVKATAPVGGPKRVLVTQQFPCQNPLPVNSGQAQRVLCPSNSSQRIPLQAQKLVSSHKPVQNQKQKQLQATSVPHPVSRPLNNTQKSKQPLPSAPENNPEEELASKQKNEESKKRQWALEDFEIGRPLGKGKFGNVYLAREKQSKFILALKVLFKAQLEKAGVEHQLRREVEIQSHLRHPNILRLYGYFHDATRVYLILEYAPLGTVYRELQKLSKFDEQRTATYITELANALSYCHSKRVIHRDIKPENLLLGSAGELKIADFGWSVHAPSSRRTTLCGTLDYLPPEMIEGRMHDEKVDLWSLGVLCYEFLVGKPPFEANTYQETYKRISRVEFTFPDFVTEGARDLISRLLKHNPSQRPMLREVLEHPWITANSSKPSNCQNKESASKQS

inhibition at 1 µM [%] | IC50 [nM] | SMILES
> 50 | – | COc1ccc2c(c1)[C@]1(C[C@H]1c1ccc3c(/C=C/c4ccc(N5CCNCC5)cc4)n[nH]c3c1)C(=O)N2 (relative stereo) [Example A182, (1R*,2S*)-5′-methoxy-2-(3-(4-(piperazin-1-yl)styryl)-1H-indazol-6-yl)spiro[cyclopropane-1,3′-indolin]-2′-one 2,2,2-trifluoroacetate]
> 50 | – | COc1ccc2c(c1)[C@]1(C[C@H]1c1ccc3c(/C=C/c4csc(CN5CCOCC5)c4)n[nH]c3c1)C(=O)N2 (relative stereo) [Example A184, (1R*,2S*)-5′-methoxy-2-(3-((E)-2-(5-(morpholinomethyl)thiophen-3-yl)vinyl)-1H-indazol-6-yl)spiro[cyclopropane-1,3′-indolin]-2′-one 2,2,2-trifluoroacetate]
> 50 | – | CCN1CCN(c2ccc(/C=C/c3n[nH]c4cc([C@@H]5C[C@@]56C(=O)Nc5ccc(OC)cc56)ccc34)cc2)CC1 (relative stereo) [Example A188, (1R*,2S*)-(E)-2-(3-(4-(4-ethylpiperazin-1-yl)styryl)-1H-indazol-6-yl)-5′-methoxyspiro[cyclopropane-1,3′-indolin]-2′-one 2,2,2-trifluoroacetate]
> 50 | – | COc1ccc2c(c1)[C@]1(C[C@H]1c1ccc3c(/C=C/c4ccc(N5CCN(C(C)C)CC5)cc4)n[nH]c3c1)C(=O)N2 (relative stereo) [Example A189, (1R*,2S*)-(E)-2-(3-(4-(4-isopropylpiperazin-1-yl)styryl)-1H-indazol-6-yl)-5′-methoxyspiro[cyclopropane-1,3′-indolin]-2′-one 2,2,2-trifluoroacetate]
> 50 | – | O=C1Nc2ccc(F)cc2[C@]12C[C@H]2c1ccc2c(/C=C/c3ccc(N4CCOCC4)nc3)n[nH]c2c1 (relative stereo) [Example A207, (1R*,2S*)-5′-fluoro-2-(3-((E)-2-(6-morpholinopyridin-3-yl)vinyl)-1H-indazol-6-yl)spiro[cyclopropane-1,3′-indolin]-2′-one 2,2,2-trifluoroacetate]
> 50 | – | COc1ccc2c(c1)[C@]1(C[C@H]1c1ccc3c(/C=C/c4ccc(N5CCOCC5)nc4)n[nH]c3c1)C(=O)N2 (relative stereo) [Example A213, (1R*,2S*)-5′-methoxy-2-(3-((E)-2-(6-morpholinopyridin-3-yl)vinyl)-1H-indazol-6-yl)spiro[cyclopropane-1,3′-indolin]-2′-one 2,2,2-trifluoroacetate]
> 50 | – | COc1ccc2c(c1)[C@]1(CC1c1ccc3c(/C=C/c4ccc(N5CCN(C)CC5)nc4)n[nH]c3c1)C(=O)N2 (single isomer, unassigned) [Example A31, (1R*,2S*)-5′-methoxy-2-(3-((E)-2-(6-(4-methylpiperazin-1-yl)pyridin-3-yl)vinyl)-1H-indazol-6-yl)spiro[cyclopropane-1,3′-indolin]-2′-one]
> 50 | – | COc1ccc2c(c1)[C@]1(C[C@H]1c1ccc3c(/C=C/c4ccc(CN5CCCCC5)cc4)n[nH]c3c1)C(=O)N2 [Example A59, (1R,2S)-(E)-5′-methoxy-2-(3-(4-(piperidin-1-ylmethyl)styryl)-1H-indazol-6-yl)spiro[cyclopropane-1,3′-indolin]-2′-one 2,2,2-trifluoroacetate salt]

More lines, now with the values behind:

SMILES | inhibition at 1 µM [%] | IC50 [nM]
CCN1Cc2ccc(/C=C/c3n[nH]c4cc([C@@H]5C[C@@]56C(=O)Nc5ccc(OC)cc56)ccc34)cc2C1 (relative stereo) [Example A190, (1R*,2S*)-2-(3-((E)-2-(2-ethylisoindolin-5-yl)vinyl)-1H-indazol-6-yl)-5′-methoxyspiro[cyclopropane-1,3′-indolin]-2′-one 2,2,2-trifluoroacetate] | > 50 | –
Cc1ccc2c(c1)[C@]1(C[C@H]1c1ccc3c(/C=C/c4ccc(CN5CCOCC5)cc4)n[nH]c3c1)C(=O)N2 (relative stereo) [Example A196, (1R*,2S*)-(E)-5′-methyl-2-(3-(4-(morpholinomethyl)styryl)-1H-indazol-6-yl)spiro[cyclopropane-1,3′-indolin]-2′-one 2,2,2-trifluoroacetate] | > 50 | –
CN(C)Cc1ccc(/C=C/c2n[nH]c3cc([C@@H]4C[C@@]45C(=O)Nc4ccc(F)cc45)ccc23)cc1 (relative stereo) [Example A208, (1R*,2S*)-(E)-2-(3-(4-((dimethylamino)methyl)styryl)-1H-indazol-6-yl)-5′-flurorospiro[cyclopropane-1,3′-indolin]-2′-one 2,2,2-trifluoroacetate] | > 50 | –
CN1CCN(c2ccc(-c3n[nH]c4cc([C@@H]5C[C@@]56C(=O)Nc5ccc(OC(F)F)cc56)ccc34)cn2)CC1 (relative stereo) [Example A209, 1R*,2S*1-5′-(difluoromethoxy)-2-(3-(6-(4-methylpiperazine-1-yl)pyridine-3-yl)-1H-indazol-6-yl) spiro[cyclopropane-1,3′-indolin]-2′-one 2,2,2-trifluoroacetate] | < 50 | –
CN1CCN(c2ccc(-c3n[nH]c4cc([C@@H]5C[C@@]56C(=O)Nc5ccc(F)cc56)ccc34)cn2)CC1 (relative stereo) [Example A210, 1R*,2S*1-5′-fluoro-2-(3-(6-(4-methylpiperazine-1-yl)pyridine-3-yl)-1H-indazol-6-yl)-spiro[cyclopropane-1,3′-indolin]-2′-one] | > 50 | –
CN(C)Cc1ccc(/C=C/c2n[nH]c3cc([C@@H]4C[C@@]45C(=O)Nc4ccc(OC(F)F)cc45)ccc23)cc1 (relative stereo) [Example A214, (1R*,2S*)-(E)-5′-difluoromethoxy-2-(3-(4-((dimethylamino)methyl)styryl)-1H-indazol-6-yl)spiro[cyclopropane-1,3′-indolin]-2′-one 2,2,2-trifluoroacetate] | > 50 | –
COc1ccc2c(c1)[C@]1(C[C@H]1c1ccc3c(/C=C/c4cc(F)c(CN(C)C)c(F)c4)n[nH]c3c1)C(=O)N2 (relative stereo) [Example A215, (1R*,2S*)-(E)-2-(3-(4-((dimethylamino)methyl)-3,5-difluorostyryl)-1H-indazol-6-yl)-5′-methoxyspiro[cyclopropane-1,3′-indolin]-2′-one 2,2,2-trifluoro acetate] | – | < 100
COc1ccc2c(c1)[C@]1(C[C@H]1c1ccc3c(/C=C/c4cc(F)c(CN5CCOCC5)c(F)c4)n[nH]c3c1)C(=O)N2 (relative stereo) [Example A217, (1R*,2S*)-(E)-2-(3-(3,5-difluoro-4-(morpholinomethyl)styryl-1H-indazol-6-yl)-5′-methoxyspiro[cyclopropane-1,3′-indolin]-2′-one 2,2,2-trifluoroacetate] | > 50 | –
O=C1Nc2ccc(F)cc2[C@]12C[C@H]2c1ccc2c(/C=C/c3ccc(CN4CCOCC4)cc3)n[nH]c2c1 (relative stereo) [Example A219, 1R*,2S*)-(E)-5′-fluoro-2-(3-(4-(morpholinomethyl)styryl-1H-indazol-6-yl)spiro[cyclopropane-1,3′-indolin]-2′-one 2,2,2-trifluoroacetate] | > 50 | –
COc1ccc2c(c1)C1(CC1c1ccc3c(I)n[nH]c3c1)C(=O)N2 (single isomer, unassigned) [Example A6, (1R*,2S*)- and (1R*,2R*)-2-(3-iodo-1H-indazol-6-yl)-5′-methoxyspiro-[cyclopropane-1,3′-indolin]-2′-one] | < 50 | –
COc1ccc2c(c1)[C@@]1(C[C@@H]1c1ccc3c(-c4ccc(N5CCN(C)CC5)nc4)n[nH]c3c1)C(=O)N2 (stereo in doubt) [Example A16, (1S,2R)-5′-methoxy-2-(3-(6-(4-methylpiperazin-1-yl)pyridin-3-yl)-1H-indazol-6-yl)spiro[cyclopropane-1,3′-indolin]-2′-one] | < 50 | –
COc1ccc2c(c1)[C@]1(C[C@H]1c1ccc3c(I)n[nH]c3c1)C(=O)N2 [Example A7, (1R,2S)-2-(3-iodo-1H-indazol-6-yl)-5′-methoxyspiro[cyclopropane-1,3′-indolin]-2′-one] | < 50 | –
O=C1Nc2ccccc2[C@]12C[C@H]2c1ccc2c(I)n[nH]c2c1 [Example A10, (1R,2S)-2-(3-iodo-1H-indazol-6-yl)spiro[cyclopropane-1,3′-indolin]-2′-one] | < 50 | –
COc1ccc2c(c1)[C@@]1(C[C@@H]1c1ccc3c(-c4ccc(N5CCN(C)CC5)nc4)n[nH]c3c1)C(=O)N2 [Example A15, (1S,2R)-5′-methoxy-2-(3-(6-(4-methylpiperazin-1-yl)pyridin-3-yl)-1H-indazol-6-yl)spiro[cyclopropane-1,3′-indolin]-2′-one] | < 50 | –
O=C1Nc2ccccc2[C@]12C[C@H]2c1ccc2c(/C=C/c3cccnc3)n[nH]c2c1 [Example A29, (1R,2S)-2-(3-((E)-2-(pyridin-3-yl)vinyl)-1H-indazol-6-yl)spiro[cyclopropane-1,3′-indolin]-2′-one] | > 50 | –
O=C1Nc2ccccc2[C@@]12C[C@@H]2c1ccc2c(/C=C/c3cccnc3)n[nH]c2c1 [Example A30, (1S,2R)-2-(3-((E)-2-(pyridin-3-yl)vinyl)-1H-indazol-6-yl)spiro[cyclopropane-1,3′-indolin]-2′-one] | > 50 | –
COc1ccc2c(c1)[C@@]1(C[C@@H]1c1ccc3c(-c4ccc(N5CCNCC5)cc4)n[nH]c3c1)C(=O)N2 [Example A50, (1S,2R)-5′-methoxy-2-(3-(4-(piperazin-1-yl)phenyl)-1H-indazol-6-yl)spiro[cyclopropane-1,3′-indolin]-2′-one 2,2,2-trifluoroacetate] | < 50 | –
O=C1Nc2ccccc2[C@]12C[C@H]2c1ccc2c(/C=C/c3ccc(CN4CCCCC4)cc3)n[nH]c2c1 [Example A58, (1R,2S)-(E)-2-(3-(4-(piperidin-1-ylmethyl)styryl)-1H-indazol-6-yl)spiro[cyclopropane-1,3′-indolin]-2′-one 2,2,2-trifluoroacetate] | > 50 | –
O=C1Nc2ccccc2[C@]12C[C@H]2c1ccc2c(/C=C/c3ccc(CN4CCCC4)cc3)n[nH]c2c1 [Example A61, (1R,2S)-(E)-2-(3-(4-(pyrolidin-1-ylmethyl)styryl)-1H-indazol-6-yl)spiro[cyclopropane-1,3′-indolin]-2′-one 2,2,2-trifluoroacetate] | > 50 | –
